Measured values from patent US10023570B2 (Array BioPharma, Inc., priority 2015, dated 2018).

Target: human KDR protein in HEK-293 cells (Homo sapiens (Human), UniProt P35968)
Assay: KDR Cell Assay (phospho-KDR in HEK-293 cells expressing inducible KDR)
Assay type: cell-based
Settings: pKDR Cell HEK 10% FBS IC50, HEK-293 cells expressing inducible KDR, VEGF stimulated
Outline: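 HEK-293 cells with inducible human KDR were treated with compound for 1 h in DMEM (0.25% DMSO final), then lysed. Phospho-KDR was quantified by Meso Scale immunoassay, expressed as percent of control, and IC50 taken where a 4-parameter logistic fit crossed 50 POC.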

human KDR protein in HEK-293 cells, sequence (P35968 20-1356): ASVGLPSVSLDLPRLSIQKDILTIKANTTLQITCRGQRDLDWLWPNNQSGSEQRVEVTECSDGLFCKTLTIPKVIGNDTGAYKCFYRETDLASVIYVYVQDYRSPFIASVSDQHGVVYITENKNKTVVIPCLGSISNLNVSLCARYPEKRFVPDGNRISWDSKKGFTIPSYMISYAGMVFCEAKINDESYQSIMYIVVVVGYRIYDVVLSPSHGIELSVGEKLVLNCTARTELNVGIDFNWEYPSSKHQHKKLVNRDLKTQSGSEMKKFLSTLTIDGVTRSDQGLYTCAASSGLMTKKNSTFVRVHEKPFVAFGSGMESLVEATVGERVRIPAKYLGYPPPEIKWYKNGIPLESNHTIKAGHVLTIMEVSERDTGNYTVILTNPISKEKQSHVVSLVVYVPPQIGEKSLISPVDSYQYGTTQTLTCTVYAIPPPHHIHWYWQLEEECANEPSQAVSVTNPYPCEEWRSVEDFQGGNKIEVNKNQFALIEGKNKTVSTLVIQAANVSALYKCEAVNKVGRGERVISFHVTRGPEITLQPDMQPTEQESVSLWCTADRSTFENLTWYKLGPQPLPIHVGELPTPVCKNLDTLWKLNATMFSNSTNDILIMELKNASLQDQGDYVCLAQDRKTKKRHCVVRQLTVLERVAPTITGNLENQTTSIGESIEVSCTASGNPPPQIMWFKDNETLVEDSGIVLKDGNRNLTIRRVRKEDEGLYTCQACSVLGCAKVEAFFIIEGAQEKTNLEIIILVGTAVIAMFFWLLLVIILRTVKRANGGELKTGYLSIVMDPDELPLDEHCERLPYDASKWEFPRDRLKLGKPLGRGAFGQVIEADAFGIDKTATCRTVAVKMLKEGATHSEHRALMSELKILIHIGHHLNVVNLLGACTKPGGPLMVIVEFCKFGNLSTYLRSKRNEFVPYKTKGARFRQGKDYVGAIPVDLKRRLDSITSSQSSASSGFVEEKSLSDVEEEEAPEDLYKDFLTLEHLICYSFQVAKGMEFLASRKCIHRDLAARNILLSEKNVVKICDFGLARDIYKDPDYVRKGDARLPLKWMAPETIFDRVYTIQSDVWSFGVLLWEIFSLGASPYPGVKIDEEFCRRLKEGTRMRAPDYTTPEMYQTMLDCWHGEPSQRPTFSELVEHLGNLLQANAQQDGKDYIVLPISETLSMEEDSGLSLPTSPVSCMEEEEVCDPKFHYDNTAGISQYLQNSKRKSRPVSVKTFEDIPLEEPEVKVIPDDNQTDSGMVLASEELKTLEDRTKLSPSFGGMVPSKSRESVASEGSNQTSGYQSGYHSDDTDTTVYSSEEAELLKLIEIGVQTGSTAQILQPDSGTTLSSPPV

| Compound | IC50 [nM] | IC50 (10% FBS) [nM] |
| --- | --- | --- |
| CCN(CC)C(=O)N1CC2(CCN(c3ccc(-c4cc(-c5cnn(C)c5)cn5ncc(C#N)c45)cn3)CC2)C1 [Example 502, 7-(5-(3-cyano-6-(1-methyl-1H-pyrazol-4-yl)pyrazolo[1,5-a]pyridin-4-yl)pyridin-2-yl)-N,N-diethyl-2,7-diazaspiro[3.5]nonane-2-carboxamide] | 437 | – |
| Cn1cc(-c2cc(-c3ccc(N4CCN(CCOC5CC5)CC4)nc3)c3c(C#N)cnn3c2)cn1 [Example 407, 4-(6-(4-(2-cyclopropoxyethyl)piperazin-1-yl)pyridin-3-yl)-6-(1-methyl-1H-pyrazol-4-yl)pyrazolo[1,5-a]pyridine-3-carbonitrile] | 828 | – |
| CCC1CCN(C(=O)N2CCN(c3ccc(-c4cc(-c5cnn(C)c5)cn5ncc(C#N)c45)cn3)CC2)C1 (stereo not shown) [Example 389, 4-(6-(4-(3-ethylpyrrolidine-1-carbonyl)piperazin-1-yl)pyridin-3-yl)-6-(1-methyl-1H-pyrazol-4-yl)pyrazolo[1,5-a]pyridine-3-carbonitrile] | 857 | – |
| Cn1cc(-c2cc(-c3ccc(N4CCC5(CC4)CN(C(=O)N4CCCC4)C5)nc3)c3c(C#N)cnn3c2)cn1 [Example 500, 6-(1-methyl-1H-pyrazol-4-yl)-4-(6-(2-(pyrrolidine-1-carbonyl)-2,7-diazaspiro[3.5]nonan-7-yl)pyridin-3-yl)pyrazolo[1,5-a]pyridine-3-carbonitrile] | 458 | – |
| CO[C@H]1CCN(C(=O)N2CCN(c3ncc(-c4cc(-c5cnn(C)c5)cn5ncc(C#N)c45)cn3)CC2)C1 [Example 286, (S)-4-(2-(4-(3-methoxypyrrolidine-1-carbonyl)piperazin-1-yl)pyrimidin-5-yl)-6-(1-methyl-1H-pyrazol-4-yl)pyrazolo[1,5-a]pyridine-3-carbonitrile] | – | 4830 |
| Cn1cc(-c2cc(-c3ccc(N4CCN(C(=O)CC5CCOC5)CC4)nc3)c3c(C#N)cnn3c2)cn1 (stereo not shown) [Example 62, 6-(1-methyl-1H-pyrazol-4-yl)-4-(6-(4-(2-(tetrahydrofuran-3-yl)acetyl)piperazin-1-yl)pyridin-3-yl)pyrazolo[1,5-a]pyridine-3-carbonitrile] | – | 1300 |
| Cn1cc(-c2cc(-c3ccc(N4CCC5(CC4)CCN5C(=O)OC(C)(C)C)nc3)c3c(C#N)cnn3c2)cn1 [Example 515, tert-butyl 7-(5-(3-cyano-6-(1-methyl-1H-pyrazol-4-yl)pyrazolo[1,5-a]pyridin-4-yl)pyridin-2-yl)-1,7-diazaspiro[3.5]nonane-1-carboxylate] | 284 | – |
| Cn1cc(-c2cc(-c3ccc(N4CCN(CC(=O)N5CCCC5)CC4)nc3)c3c(C#N)cnn3c2)cn1 [Example 145, 6-(1-methyl-1H-pyrazol-4-yl)-4-(6-(4-(2-oxo-2-(pyrrolidin-1-yl)ethyl)piperazin-1-yl)pyridin-3-yl)pyrazolo[1,5-a]pyridine-3-carbonitrile 2,2,2-trifluoroacetate] | – | 682 |
| Cc1cc(-c2cc(-c3ccc(N4CCN(C(=O)CC(C)(C)C)CC4)cc3)c3c(C#N)cnn3c2)n[nH]1 [Example 310, 4-(4-(4-(3,3-dimethylbutanoyl)piperazin-1-yl)phenyl)-6-(5-methyl-1H-pyrazol-3-yl)pyrazolo[1,5-a]pyridine-3-carbonitrile] | – | 1760 |
| Cn1cc(-c2cc(-c3ccc(N4CCN(C(=O)Cc5ccc(F)cn5)CC4)nc3)c3c(C#N)cnn3c2)cn1 [Example 360, 4-(6-(4-(2-(5-fluoropyridin-2-yl)acetyl)piperazin-1-yl)pyridin-3-yl)-6-(1-methyl-1H-pyrazol-4-yl)pyrazolo[1,5-a]pyridine-3-carbonitrile bis(2,2,2-trifluoroacetate)] | – | 385 |
| Cn1cc(-c2cc(-c3ccc(N4C5CC4CN(Cc4ccccc4)C5)nc3)c3c(C#N)cnn3c2)cn1 [Example 490, 4-(6-(3-benzyl-3,6-diazabicyclo[3.1.1]heptan-6-yl)pyridin-3-yl)-6-(1-methyl-1H-pyrazol-4-yl)pyrazolo[1,5-a]pyridine-3-carbonitrile] | 619 | – |
| Cn1cc(-c2cc(-c3ccc(N4[C@@H]5CC[C@H]4C[C@H](NC(=O)OC(C)(C)C)C5)nc3)c3c(C#N)cnn3c2)cn1 [Example 192, tert-butyl ((1R,3s,5S)-8-(5-(3-cyano-6-(1-methyl-1H-pyrazol-4-yl)pyrazolo[1,5-a]pyridin-4-yl)pyridin-2-yl)-8-azabicyclo[3.2.1]octan-3-yl)carbamate] | – | 932 |
| Cn1cc(-c2cc(-c3ccc(N4CCN(C(=O)C5(c6ccccn6)CC5)CC4)nc3)c3c(C#N)cnn3c2)cn1 [Example 359, 6-(1-methyl-1H-pyrazol-4-yl)-4-(6-(4-(1-(pyridine-2-yl)cyclopropane-1-carbonyl)piperazin-1-yl)pyridin-3-yl)pyrazolo[1,5-a]pyridine-3-carbonitrile bis(2,2,2-trifluoroacetate)] | – | 910 |
| Cn1cc(-c2cc(-c3ccc(N4CCN(CC(C)(C)O)CC4)nc3)c3c(C#N)cnn3c2)cn1 [Example 156, 4-(6-(4-(2-hydroxy-2-methylpropyl)piperazin-1-yl)pyridin-3-yl)-6-(1-methyl-1H-pyrazol-4-yl)pyrazolo[1,5-a]pyridine-3-carbonitrile] | – | 1760 |
| CCOCCN1CCN(c2ccc(-c3cc(-c4cnn(C)c4)cn4ncc(C#N)c34)cn2)CC1 [Example 397, 4-(6-(4-(2-ethoxyethyl)piperazin-1-yl)pyridin-3-yl)-6-(1-methyl-1H-pyrazol-4-yl)pyrazolo[1,5-a]pyridine-3-carbonitrile] | 1500 | – |
| CN(C(=O)N1CCN(c2ccc(-c3cc(-c4cnn(C)c4)cn4ncc(C#N)c34)cn2)CC1)C1CC1 [Example 386, 4-(5-(3-cyano-6-(1-methyl-1H-pyrazol-4-yl)pyrazolo[1,5-a]pyridine-4-yl)pyridin-2-yl)-N-cyclopropyl-N-methylpiperazine-1-carboxamide 2,2,2-trifluoroacetate] | 1410 | – |
| Cn1cc(-c2cc(-c3ccc(N4CCC5(CC4)CN(C(=O)c4ccccc4)C5)nc3)c3c(C#N)cnn3c2)cn1 [Example 217, 4-(6-(2-benzoyl-2,7-diazaspiro[3.5]nonan-7-yl)pyridin-3-yl)-6-(1-methyl-1H-pyrazol-4-yl)pyrazolo[1,5-a]pyridine-3-carbonitrile] | – | 1670 |
| Cn1cc(-c2cc(-c3ccc(N4CCC5(CN(C(=O)OC(C)(C)C)C5)C4)nc3)c3c(C#N)cnn3c2)cn1 [Example 521, tert-butyl 6-(5-(3-cyano-6-(1-methyl-1H-pyrazol-4-yl)pyrazolo[1,5-a]pyridin-4-yl)pyridin-2-yl)-2,6-diazaspiro[3.4]octane-2-carboxylate] | 675 | – |
| CNS(=O)(=O)N1CCN(c2ccc(-c3cc(-c4cnn(C)c4)cn4ncc(C#N)c34)cc2)CC1 [Example 299, 4-(4-(3-cyano-6-(1-methyl-1H-pyrazol-4-yl)pyrazolo[1,5-a]pyridin-4-yl)phenyl)-N-methylpiperazine-1-sulfonamide] | – | 151 |
| CC(C)O[C@H]1CCN(C(=O)N2CCN(c3ccc(-c4cc(-c5cnn(C)c5)cn5ncc(C#N)c45)cn3)CC2)C1 [Example 108, (S)-4-(6-(4-(3-isopropoxypyrrolidine-1-carbonyl)piperazin-1-yl)pyridin-3-yl)-6-(1-methyl-1H-pyrazol-4-yl)pyrazolo[1,5-a]pyridine-3-carbonitrile] | – | 531 |
| Cn1cc(-c2cc(-c3ccc(N4CCN(C(=O)N5CCN6CCCC6C5)CC4)nc3)c3c(C#N)cnn3c2)cn1 (stereo not shown) [Example 381, 6-(1-methyl-1H-pyrazol-4-yl)-4-(6-(4-(octahydropyrrolo[1,2-a]pyrazine-2-carbonyl)piperazin-1-yl)pyridin-3-yl)pyrazolo[1,5-a]pyridine-3-carbonitrile] | 811 | – |
| Cn1cc(-c2cc(-c3ccc(N4CCN(C(=O)N5CCCC(F)C5)CC4)nc3)c3c(C#N)cnn3c2)cn1 (stereo not shown) [Example 116, 4-(6-(4-(3-fluoropiperidine-1-carbonyl)piperazin-1-yl)pyridin-3-yl)-6-(1-methyl-1H-pyrazol-4-yl)pyrazolo[1,5-a]pyridine-3-carbonitrile] | – | 2270 |
| Cn1cc(-c2cc(-c3ccc(N4CCN(S(=O)(=O)CC(C)(C)C)CC4)nc3)c3c(C#N)cnn3c2)cn1 [Example 89] | – | 189 |
| Cn1cc(-c2cc(-c3ccc(N4CCN(C(=O)[C@H](O)c5ccccc5Cl)CC4)nc3)c3ccnn3c2)cn1 [Example 320, (R)-2-(2-chlorophenyl)-2-hydroxy-1-(4-(5-(6-(1-methyl-1H-pyrazol-4-yl)pyrazolo[1,5-a]pyridin-4-yl)pyridin-2-yl)piperazin-1-yl)ethanone] | – | ≥ 5000 |
| Cn1cc(-c2cc(-c3ccc(N4CCC5(CCCOC5)C4)nc3)c3c(C#N)cnn3c2)cn1 (stereo not shown) [Example 529, 4-(6-(7-oxa-2-azaspiro[4.5]decan-2-yl)pyridin-3-yl)-6-(1-methyl-1H-pyrazol-4-yl)pyrazolo[1,5-a]pyridine-3-carbonitrile] | ≥ 5000 | – |
| Cn1cc(-c2cc(-c3ccc(N4CCN(Cc5cc(F)ccc5F)CC4)nc3)c3c(C#N)cnn3c2)cn1 [Example 429, 4-(6-(4-(2,5-difluorobenzyl)piperazin-1-yl)pyridin-3-yl)-6-(1-methyl-1H-pyrazol-4-yl)pyrazolo[1,5-a]pyridine-3-carbonitrile] | 1560 | – |
| Cc1cccnc1CN1CCN(c2ccc(-c3cc(-c4cnn(C)c4)cn4ncc(C#N)c34)cn2)CC1 [Example 438, 6-(1-methyl-1H-pyrazol-4-yl)-4-(6-(4-((3-methylpyridin-2-yl)methyl)piperazin-1-yl)pyridine-3-yl)pyrazolo[1,5-a]pyridine-3-carbonitrile] | 1990 | – |
| CC(=O)N1CC2(CCN(c3ccc(-c4cc(-c5cnn(C)c5)cn5ncc(C#N)c45)cn3)CC2)C1 [Example 220, 4-(6-(2-acetyl-2,7-diazaspiro[3.5]nonan-7-yl)pyridin-3-yl)-6-(1-methyl-1H-pyrazol-4-yl)pyrazolo[1,5-a]pyridine-3-carbonitrile] | – | 617 |
